Data reported in PMC5706701, “Development of a homogenous high-throughput assay for inositol hexakisphosphate kinase 1 activity” (PLoS ONE, 2017).
Where a name gives a salt, the structure may show the parent alone.

Biological target: T1, Human IP6K1 (Homo sapiens, UniProt Q92551)
T1 construct: GST (N, cleaved yes); made in house; host or cells: C43 E. coli, pGEX-6P-2
Test: IP6K1 high-throughput screen of the Sigma LOPAC (ADP-Glo Max, single point);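 also: final compound concentration 10µM in 5% DMSO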
Type: biochemical

[1] = Sigma LOPAC single-point screen, ADP-Glo Max raw signal per well
[2] = Sigma LOPAC single-point screen, Z-score from plate average and StDev
[3] = LOPAC single-point screen, ADP-Glo Max raw signal per well
[4] = LOPAC single-point screen, Z-score against plate average and StDev
[5] = LOPAC single-point screen, Z-score relative to plate average and StDev
[6] = LOPAC single-point screen, ADP-Glo Max luminescence raw signal per well
[7] = LOPAC single-point screen, Z-score from raw signal with plate average and StDev

T1 sequence (Q92551 whole entry): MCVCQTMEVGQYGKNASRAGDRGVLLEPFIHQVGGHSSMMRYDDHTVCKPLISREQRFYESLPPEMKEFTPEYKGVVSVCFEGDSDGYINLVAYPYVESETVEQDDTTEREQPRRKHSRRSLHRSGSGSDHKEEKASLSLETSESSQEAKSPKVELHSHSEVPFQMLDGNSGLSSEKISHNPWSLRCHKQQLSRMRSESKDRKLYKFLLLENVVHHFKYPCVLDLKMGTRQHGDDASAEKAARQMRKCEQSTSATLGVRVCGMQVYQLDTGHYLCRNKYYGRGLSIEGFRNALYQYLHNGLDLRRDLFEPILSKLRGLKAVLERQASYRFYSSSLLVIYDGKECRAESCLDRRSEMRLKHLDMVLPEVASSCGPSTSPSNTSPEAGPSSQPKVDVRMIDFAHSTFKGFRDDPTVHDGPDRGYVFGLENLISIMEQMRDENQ

With `C[C@H]1CCC/C=C/[C@@H]2C[C@H](O)C[C@H]2[C@H](O)/C=C/C(=O)O1` the “Raw Signal” value [1] was 59928 and the Z-score [2] was 0.3549.

For `N=c1ccn2c(n1)O[C@H]1[C@H](O)[C@@H](CO)O[C@H]12` [Ancitabine hydrochloride], the “Raw Signal” value [3] was 57428 and the Z-score [4] was -0.08544.

With `CC(=O)O[C@H]1C[C@@]2(C)[C@@H](C[C@@H](O)[C@H]3[C@@]4(C)CC[C@@H](O)[C@@H](C)[C@@H]4CC[C@@]32C)/C1=C(\CCC=C(C)C)C(=O)[O-].[Na+]` [Fusidic acid sodium] the “Raw Signal” value [3] was 56091 and the Z-score [4] was 0.1876.

Picrotoxin showed a Z-score [5] of -0.5599.

In the case of `O=C(O)C1=CC(=C(c2ccc(O)c(C(=O)O)c2)c2ccc(O)c(C(=O)O)c2)C=CC1=O` [Aurintricarboxylic acid], the “Raw Signal” value [6] is reported as 8090 and the Z-score [5] is reported as -8.775.

`N[C@@H]1C[C@H]1c1ccccc1` [Tranylcypromine hydrochloride] was tested, and the “Raw Signal” value [3] was 55566 and the Z-score [4] was -0.08894.

In the case of `CN1CC[C@@]2(C)c3cc(O)ccc3N(C)[C@@H]12.O=C(O)/C=C/C(=O)O` [(-)-Eseroline fumarate], the “Raw Signal” value [1] is reported as 57638 and the Z-score [2] is reported as 0.5018.

For `C[C@]12CCC(=O)C=C1CC[C@@H]1[C@@H]2CC[C@]2(C)C(=O)CC[C@@H]12` [4-Androstene-3,17-dione], the “Raw Signal” value [3] was 58885 and the Z-score [4] was 0.1712.

In the case of `O=C(O)CCc1nc(-c2ccccc2)c(-c2ccccc2)o1` [Oxaprozin], the “Raw Signal” value [1] is reported as 57771 and the Z-score [2] is reported as 0.5675.

`Br.Br.N=C(N)SCCc1ccc(CCSC(=N)N)cc1` [1,4-PBIT dihydrobromide] was tested, and the “Raw Signal” value [6] was 52088 and the Z-score [5] was -0.7647.

In the case of `O=C(Nc1ccccc1)c1cc([N+](=O)[O-])ccc1Cl` [GW9662], the “Raw Signal” value [3] is reported as 52726 and the Z-score [7] is reported as -0.2802.

In the case of `CCCCCCCCCCCCCCCC(=O)OC(CC(=O)O)C[N+](C)(C)C.[Cl-]` (racemic) [Palmitoyl-DL-Carnitine chloride], the “Raw Signal” value [3] is reported as 51772 and the Z-score [7] is reported as -0.4405.

With `C=C[C@@]1(C)CC(=O)[C@]2(O)[C@@]3(C)[C@@H](O)CCC(C)(C)[C@@H]3[C@H](O)[C@H](OC(C)=O)[C@@]2(C)O1` [Forskolin] the “Raw Signal” value [1] was 61603 and the Z-score [2] was 1.307.

`CNC[C@H](O)c1ccc(O)c(O)c1` [(-)-Epinephrine bitartrate] was tested, and the “Raw Signal” value [6] was 51229 and the Z-score [5] was -0.7998.

With `N[C@@H](Cn1ccc(=O)[nH]c1=O)C(=O)O` [S(-)-Willardiine] the “Raw Signal” value [3] was 55281 and the Z-score [7] was -0.1443.

With `CCOC(=O)C1=C[C@]2(CC)CCCN3CCc4c(n1c1ccccc41)[C@@H]32` [Vinpocetine] the “Raw Signal” value [1] was 59958 and the Z-score [2] was 0.7643.

For `NCCc1c[nH]cn1` [Histamine dihydrochloride], the “Raw Signal” value [6] was 51759 and the Z-score [5] was -0.6921.

With `CCn1cnc2c(Nc3cccc(Cl)c3)nc(N[C@@H]3CCCC[C@@H]3N)nc21.Cl` [CGP-74514A hydrochloride] the “Raw Signal” value [3] was 58874 and the Z-score [4] was 0.1692.

For `CC1(C)CCC(NC(=O)[C@@H](N)CCC(=O)O)CC1` [CR 2249], the “Raw Signal” value [3] was 52015 and the Z-score [7] was -0.3997.

In the case of `CCCn1c(=O)c2[nH]c(-c3ccc(S(=O)(=O)O)cc3)nc2n(CCC)c1=O` [1,3-Dipropyl-8-p-sulfophenylxanthine], the “Raw Signal” value [6] is reported as 54862 and the Z-score [5] is reported as -0.5374.

`CCN(CC)CCNC(=O)c1ccc(N)cc1` [Procainamide hydrochloride] was tested, and the “Raw Signal” value [6] was 51793 and the Z-score [5] was -0.822.

`CN(N=O)c1ccc(O)c(O)c1` [Me-3,4-dephostatin] was tested, and the “Raw Signal” value [6] was 32245 and the Z-score [5] was -3.722.

With `Nc1nc2ccc(OC(F)(F)F)cc2s1` [Riluzole] the “Raw Signal” value [6] was 52217 and the Z-score [5] was -0.7396.

`COc1ccc2c(c1)[C@@]13CCCC[C@H]1[C@@H](C2)NCC3.Cl` [3-Methoxy-morphanin hydrochloride] was tested, and the “Raw Signal” value [3] was 54071 and the Z-score [4] was -0.05419.

In the case of `N.N.[Cl][Pt][Cl]` [Cisplatin], the “Raw Signal” value [6] is reported as 49642 and the Z-score [5] is reported as -0.7984.

`CCCN1C[C@H](CSC)C[C@@H]2c3cccc4[nH]cc(c34)C[C@H]21` [Pergolide methanesulfonate] was tested, and the “Raw Signal” value [3] was 53757 and the Z-score [7] was -0.4404.

For `C[C@H](Cc1ccccc1)Nc1ncnc2c1ncn2[C@@H]1O[C@H](CO)[C@@H](O)[C@H]1O` [R(-)-N6-(2-Phenylisopropyl)adenosine], the “Raw Signal” value [1] was 58463 and the Z-score [2] was 0.6838.

In the case of `CCc1cccc(N(C)C(N)=Nc2cccc3ccccc23)c1` [CNS-1102], the “Raw Signal” value [1] is reported as 64774 and the Z-score [2] is reported as 1.208.

In the case of `CN(C)CCCN1c2ccccc2Sc2ccc(Cl)cc21` [Chlorpromazine hydrochloride], the “Raw Signal” value [1] is reported as 63674 and the Z-score [2] is reported as 1.015.

For `CN1Cc2c(N)cccc2C(c2ccccc2)C1` (centres unmarked) [Nomifensine maleate], the “Raw Signal” value [3] was 56397 and the Z-score [4] was 0.3366.
